Legend:
[1] = target: T1, Delta-type opioid receptor (Homo sapiens, UniProt P41143); experiment: Binding inhibition of [3H]- -naltrindole (0.15 nM) to membranes in CHO cells expressing Opioid receptor delta 1; type: cell-based
[2] = target: Kappa-type opioid receptor (Cavia porcellus, UniProt P41144); experiment: Binding affinity towards Opioid receptor kappa 1 using [3H]- U-69,593 (1.5 nM) as radioligand in guinea pig brain membranes; type: cell membranes, Membrane
Mu-type opioid receptor = Mu-type opioid receptor (Rattus norvegicus, UniProt P33535); experiment: Binding affinity towards mu opioid receptor using [3H]- -DAMGO (1.5 nM) as radioligand in rat brain membranes; type: cell membranes
Mu-type opioid receptor, sequence (P33535 whole entry): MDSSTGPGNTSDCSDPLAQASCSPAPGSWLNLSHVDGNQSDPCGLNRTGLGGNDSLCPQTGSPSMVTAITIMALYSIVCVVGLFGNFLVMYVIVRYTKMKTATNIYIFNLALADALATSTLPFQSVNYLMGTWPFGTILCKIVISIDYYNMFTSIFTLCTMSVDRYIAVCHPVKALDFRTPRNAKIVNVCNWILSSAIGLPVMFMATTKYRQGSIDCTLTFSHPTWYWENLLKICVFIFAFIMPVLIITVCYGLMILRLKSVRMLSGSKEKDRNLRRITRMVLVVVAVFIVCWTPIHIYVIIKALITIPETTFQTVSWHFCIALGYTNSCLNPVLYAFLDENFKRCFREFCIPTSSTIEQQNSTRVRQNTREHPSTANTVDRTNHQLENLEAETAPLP

[3] = target: T1, Delta-type opioid receptor; experiment: Compound was tested for inhibition of binding of [3H]- -naltrindole (0.15 nM) to membranes from CHO cells expressing human delta opioid receptor; type: cell membranes

T1 sequence (P41143 whole entry): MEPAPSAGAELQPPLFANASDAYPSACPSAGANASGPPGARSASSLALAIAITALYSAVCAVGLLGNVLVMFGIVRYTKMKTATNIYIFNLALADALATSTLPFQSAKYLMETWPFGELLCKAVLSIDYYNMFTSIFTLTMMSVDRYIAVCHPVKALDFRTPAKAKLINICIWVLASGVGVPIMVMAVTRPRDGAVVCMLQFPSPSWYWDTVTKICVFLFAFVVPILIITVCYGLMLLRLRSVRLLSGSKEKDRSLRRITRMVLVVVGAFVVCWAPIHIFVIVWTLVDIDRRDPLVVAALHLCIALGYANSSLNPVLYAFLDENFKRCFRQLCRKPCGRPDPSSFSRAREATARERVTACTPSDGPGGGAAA
Kappa-type opioid receptor, sequence (P41144 whole entry): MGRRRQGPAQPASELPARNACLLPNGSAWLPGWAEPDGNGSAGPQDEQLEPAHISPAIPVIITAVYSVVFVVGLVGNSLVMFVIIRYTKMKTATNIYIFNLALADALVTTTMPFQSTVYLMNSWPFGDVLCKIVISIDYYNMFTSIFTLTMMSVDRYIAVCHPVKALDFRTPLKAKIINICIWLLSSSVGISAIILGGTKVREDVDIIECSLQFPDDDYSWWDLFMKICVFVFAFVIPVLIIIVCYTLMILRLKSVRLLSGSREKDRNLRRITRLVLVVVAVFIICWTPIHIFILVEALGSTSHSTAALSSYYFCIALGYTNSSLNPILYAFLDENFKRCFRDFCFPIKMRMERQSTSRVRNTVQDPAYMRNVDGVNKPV

C=CCN1CCN(C(c2ccccc2)c2ccc(C(=O)OC)cc2)CC1 (configuration not stated)
IC50 [1]: 607 nM

C=CCN1C[C@H](C)N([C@@H](c2ccc(C(=S)N(CC)CC)cc2)c2cccc(OC)c2)C[C@H]1C
IC50 [1]: 5.3 nM
IC50 [2]: 8600 nM
IC50 (Mu-type opioid receptor): 6300 nM

C=CCN1C[C@H](C)N([C@@H](c2ccc(C(=O)O)cc2)c2cccc(OC)c2)C[C@H]1C
IC50 [1]: 450 nM
IC50 (Mu-type opioid receptor): > 10000 nM

C=CCN1CCN(C(c2ccccc2)c2ccc(-c3ccccn3)cc2)CC1 (configuration not stated)
IC50 [1]: 250 nM

C=CCN1CCN(C(c2ccccc2)c2ccc(C(=O)N(Cc3cccnc3)CC(OCCC)OCCC)cc2)CC1 (configuration not stated)
IC50 [1]: 4 nM
IC50 (Mu-type opioid receptor): > 10000 nM

C=CCN1C[C@H](C)N(C(c2ccccc2)c2ccccc2)C[C@H]1C
IC50 [1]: 420 nM
IC50 (Mu-type opioid receptor): 380 nM

C=CCN1CCN(C(c2ccccc2)c2ccc(C(=O)N(C)C)cc2)CC1 (configuration not stated)
IC50 [1]: 44.3 nM
IC50 (Mu-type opioid receptor): > 50000 nM

C=CCN1CCN(C(c2ccccc2)c2ccc(-c3cccnc3)cc2)CC1 (configuration not stated)
IC50 [1]: 500 nM

C=CCN1CCN(C(c2ccccc2)c2ccc(C(=O)NCC)cc2)CC1 (configuration not stated)
IC50 [1]: 360 nM

C=CCN1CCN(C(c2ccccc2)c2ccc(C(=O)OCC)cc2)CC1 (configuration not stated)
IC50 [1]: 1390 nM

C=CCN1CCN(C(c2ccccc2)c2ccc(C(=O)N(CC)CC)cc2)CC1 (configuration not stated)
IC50 [3]: 5 nM
IC50 (Mu-type opioid receptor): > 10000 nM

C=CCN1CCN(C(c2ccccc2)c2ccc(C(=O)N(CCC)CC3CC3)cc2)CC1 (configuration not stated)
IC50 [1]: 3 nM
IC50 (Mu-type opioid receptor): > 10000 nM

C=CCN1CCN(C(c2ccccc2)c2ccc(C(=O)O)cc2)CC1 (configuration not stated)
IC50 [1]: 8100 nM

C=CCN1C[C@H](C)N([C@@H](c2ccc(-c3ccccn3)cc2)c2cccc(OC)c2)C[C@H]1C
IC50 [1]: 22 nM
IC50 [2]: 2100 nM
IC50 (Mu-type opioid receptor): 6400 nM

C=CCN1CCN(C(c2ccccc2)c2ccc(C(=O)Nc3ccc(OC)cc3)cc2)CC1 (configuration not stated)
IC50 [1]: 1900 nM

C=CCN1CCN([C@@H](c2ccccc2)c2ccc(C(=O)N(CC)CC)cc2)CC1
IC50 [1]: 4.1 nM
IC50 [2]: > 10000 nM
IC50 (Mu-type opioid receptor): > 10000 nM

C=CCN1C[C@H](C)N([C@H](c2ccccc2)c2ccc(C(=O)N(CC)CC)cc2)C[C@H]1C
IC50 [1]: 1.1 nM
IC50 [2]: > 10000 nM
IC50 (Mu-type opioid receptor): 6500 nM

C=CCN1C[C@H](C)N([C@@H](c2ccc(C(=O)OC)cc2)c2cccc(OC)c2)C[C@H]1C
IC50 [1]: 240 nM
IC50 (Mu-type opioid receptor): 3600 nM

C=CCN1CCN(C(c2ccccc2)c2ccc(C(=O)N(CCC)CCC)cc2)CC1 (configuration not stated)
IC50 [1]: 7.2 nM
IC50 (Mu-type opioid receptor): 41600 nM

C=CCN1CCN(C(c2ccccc2)c2ccc(C(=O)N3CCCCC3)cc2)CC1 (configuration not stated)
IC50 [1]: 82.4 nM
IC50 (Mu-type opioid receptor): > 21600 nM

C=CCN1CCN([C@H](c2ccc(C(=O)N(CC)CC)cc2)c2cccc(OC)c2)CC1
IC50 [1]: 7.4 nM
IC50 [2]: > 10000 nM
IC50 (Mu-type opioid receptor): > 10000 nM

C=CCN1CCN(C(c2ccccc2)c2ccc(-c3cccs3)cc2)CC1 (configuration not stated)
IC50 [1]: 2600 nM

C=CCN1CCN(C(c2ccccc2)c2ccc(-c3ccccc3)cc2)CC1 (configuration not stated)
IC50 [1]: 1720 nM

From ChEMBL document CHEMBL1132049, “Synthesis of novel analogues of the delta opioid ligand SNC-80 using REM resin” (Bioorg Med Chem Lett, 1999)
